# US8334291B2, “Aliphatically substituted pyrazolopyridines, and the use thereof” (Bayer Intellectual Property GmbH, priority 2008, dated 2012)
# System: rabbit aorta rings contracted with phenylephrine
# Experiment: Vasorelaxant effect in vitro
# Parameters: species or system Rabbits
# Conditions: Oryctolagus cuniculus; concentration reducing height of phenylephrine-induced contraction of rabbit aorta rings by 50%; 0.1% DMSO
# Method: Rabbits are stunned by a blow to the neck and exsanguinated. The aorta is removed, freed from adhering tissue and divided into rings of a width of 1.5 mm. The rings are placed individually under an initial tension in 5 ml organ baths with Krebs-Henseleit solution which is at 37° C., is gassed with carbogen and has the following composition (in each case mM): NaCl: 119; KCl: 4.8; CaCl2×2H2O: 1; MgSO4×7H2O: 1.4; KH2PO4: 1.2; NaHCO3: 25; glucose: 10. The force of contraction is detected with Statham UC2 cells, amplified and digitized via A/D converters (DAS-1802 HC, Keithley Instruments, Munich) and recorded in parallel on chart recorders. Contractions are induced by cumulatively adding increasing concentrations of phenylephrine to the bath. After several control cycles, the substance to be investigated is added in each further run in increasing dosage in each case, and the height of the contraction achieved is compared with the height of the contraction reached in the last preceding one. The concentration necessary to reduce the height of the control value by 50% is calculated from this (IC50 value). The standard application volume is 5 μl, the proportion of DMSO in the bath solution corresponds to 0.1%.
row,IC50 [nM],SMILES
1,870,"COC(=O)Nc1c(N)nc(-c2nn(CC3CCCCC3)c3ncccc23)nc1N [Example 1, Methyl[4,6-diamino-2-(1-cyclohexylmethyl-1H-pyrazolo[3,4-b]pyridin-3-yl)pyrimidin-5-yl]carbamate]"
2,1000,"Nc1nc(-c2nn(CC3CCCCCC3)c3ncccc23)ncc1-c1ccncc1 [Example 5, 2-[1-(Cycloheptylmethyl)-1H-pyrazolo[3,4-b]pyridin-3-yl]-5-(pyridin-4-yl)pyrimidine-4-amine]"
